From patent US9642833B2, “Vitamin C and vitamin K, and compositions thereof for treatment of osteolysis or prolongation of prosthetic implant” (IC-MEDTECH CORPORATION, priority 2009, dated 2017)

Test system: HS68 fibroblasts
Test: MTT cytotoxicity against human dermal fibroblasts
Assay type: cell-based
Details: for CD50: vitamins alone; for VK3 CD50: in combination with Sodium L-Ascorbate

Compound: O=C1O[C@H]([C@@H](O)CO)C([O-])=C1O.[Na+] [Sodium L-Ascorbate, sodium L-ascorbate]
- VC CD50 (in combination with VK3, ratio of vitamin C to vitamin K3 100, incubation 1 day): 458 µM
- VC CD50 (in combination with VK3, ratio of vitamin C to vitamin K3 100, incubation 2 days): 471 µM
- VC CD50 (in combination with VK3, ratio of vitamin C to vitamin K3 100, incubation 3 days): 471 µM
- VC CD50 (in combination with VK3, ratio of vitamin C to vitamin K3 200, incubation 1 day): 466 µM
- VC CD50 (in combination with VK3, ratio of vitamin C to vitamin K3 200, incubation 2 days): 467 µM
- VC CD50 (in combination with VK3, ratio of vitamin C to vitamin K3 200, incubation 3 days): 397 µM
- CD50 (incubation 1 day): 1468 µM
- CD50 (incubation 2 days): 1245 µM
- CD50 (incubation 3 days): 1185 µM

Compound: CC1=CC(=O)c2ccccc2C1=O [VK3, vitamin K3]
- VK3 CD50 (ratio of vitamin C to vitamin K3 100, incubation 1 day): 4.7 µM
- VK3 CD50 (ratio of vitamin C to vitamin K3 100, incubation 2 days): 4.7 µM
- VK3 CD50 (ratio of vitamin C to vitamin K3 100, incubation 3 days): 4.7 µM
- VK3 CD50 (ratio of vitamin C to vitamin K3 200, incubation 1 day): 2.3 µM
- VK3 CD50 (ratio of vitamin C to vitamin K3 200, incubation 2 days): 2.3 µM
- VK3 CD50 (ratio of vitamin C to vitamin K3 200, incubation 3 days): 2.0 µM
- CD50 (incubation 1 day): 18.7 µM
- CD50 (incubation 2 days): 19.0 µM
- CD50 (incubation 3 days): 18.7 µM
